The source of these data is EP3210469A1, “USE OF SUBSTITUTED THIO-1,2,4-TRIAZOLES FOR INCREASING STRESS TOLERANCE IN PLANTS” (Bayer CropScience AG, priority 2016, dated 2017).

Molecules are shown by their SMILES.

One experiment deals with Brassica napus. As to the kind of experiment: Drought stress greenhouse test, in vivo Part A (spray application, visual rating vs stressed control plants). Set-up: key: 0: kein Effekt; +: leicht positiver Effekt; ++: deutlich positiver Effekt; +++: stark positiver Effekt. The settings on record: Trockenstress, Dosierung 250 g/ha, 600 l/ha water, mean rating of 3 pots. The text has this:
(§1) Samen von mono- bzw. dikotylen Kulturpflanzen wurden in Plastiktöpfen in sandigem Lehmboden ausgesät, mit Erde oder Sand abgedeckt und im Gewächshaus unter guten Wachstumsbedingungen angezogen. Die Behandlung der Versuchspflanzen erfolgte im frühen Laubblattstadium (BBCH10 - BBCH13). Zur Gewährleistung einer uniformen Wasserversorgung vor Stressbeginn wurden die bepflanzten Töpfe vor Substanzapplikation durch Anstaubewässerung mit Wasser versorgt.
(§2) Die in Form von benetzbaren Pulvern (WP) formulierten erfindungsgemässen Verbindungen wurden als wässrige Suspension mit einer Wasseraufwandmenge von umgerechnet 600 I/ha unter Zusatz von 0,2% Netzmittel (z.B. Agrotin) auf die grünen Pflanzenteile gesprüht. Unmittelbar nach Substanzapplikation erfolgte die Stressbehandlung der Pflanzen.
(§3) Der Trockenstress wurde durch langsames Abtrocknen unter folgenden Bedingungen induziert: • "Tag": 14 Stunden beleuchtet bei ~ 26-30°C • "Nacht": 10 Stunden ohne Beleuchtung bei ~ 18-20°C.
(§4) Die Dauer der jeweiligen Stressphasen richtete sich hauptsächlich nach dem Zustand der gestressten Kontrollpflanzen. Sie wurde (durch Wiederbewässerung und Transfer in ein Gewächshaus mit guten Wachstumsbedingungen) beendet, sobald irreversible Schäden an den gestressten Kontrollpflanzen zu beobachten waren.
(§5) Nach Beendigung der Stressphase folgte eine ca. 4-7 tägige Erholungsphase, während der die Pflanzen abermals unter guten Wachstumsbedingungen im Gewächshaus gehalten wurden. Die Dauer der Erholungsphase richtete sich hauptsächlich danach, wann die Versuchspflanzen einen Zustand erreicht hatten, der eine visuelle Bonitur potenzieller Effekte ermöglichte, und war daher variabel.
(§6) Wenn dieser Zeitpunkt erreicht war, wurde das Erscheinungsbild der mit Testsubstanzen behandelten Pflanzen im Vergleich zu den gestressten Kontrollpflanzen nach folgenden Kategorien erfasst:
(§7) Um auszuschliessen, dass die beobachteten Effekte von der ggf. fungiziden oder insektiziden Wirkung der Testverbindungen beeinflusst wurden, wurde zudem darauf geachtet, dass die Versuche ohne Pilzinfektion oder Insektenbefall abliefen.
(§8) In jedem Versuch wurden pro Kultur und Dosierung Pflanzen in 3 Töpfen behandelt und separat ausgewertet. Die in den unten stehenden Tabellen A-1 bis A-3 angegebenen Werte für die erhaltenen Effekte stellen Mittelwerte aus den erhaltenen Bonituren dar.
(§9) Wirkungen ausgewählter Verbindungen der allgemeinen Formel (I) unter Trockenstress: Tabelle A-1

The subject of another experiment is Zea mays. Described as above. Also noted: key: 0: kein Effekt; +: leicht positiver Effekt; ++: deutlich positiver Effekt; +++: stark positiver Effekt. The note with it: Trockenstress, 600 l/ha water, mean rating of 3 pots.
Text: as §1, §2, §3, §4, §5, §6, §7, §8, §9

A further experiment has as its system Triticum aestivum. The experiment is described as above. Also noted: key: 0: kein Effekt; +: leicht positiver Effekt; ++: deutlich positiver Effekt; +++: stark positiver Effekt. The settings on record: Trockenstress, 600 l/ha water, mean rating of 3 pots.
Text: as §1, §2, §3, §4, §5, §6, §7, §8, §9

Experiment [1] has as its target T1, Phosphatase ABI1 über den Co-Regulator RCAR11/PYR1 (Arabidopsis thaliana, UniProt O49686+P49597).
T1 sequence (O49686 1-191): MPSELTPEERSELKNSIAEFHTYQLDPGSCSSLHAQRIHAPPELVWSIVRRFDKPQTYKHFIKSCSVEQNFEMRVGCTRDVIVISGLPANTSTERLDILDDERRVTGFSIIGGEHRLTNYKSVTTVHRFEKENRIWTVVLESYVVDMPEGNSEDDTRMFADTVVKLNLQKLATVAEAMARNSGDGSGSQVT
T1 sequence (P49597 1-434): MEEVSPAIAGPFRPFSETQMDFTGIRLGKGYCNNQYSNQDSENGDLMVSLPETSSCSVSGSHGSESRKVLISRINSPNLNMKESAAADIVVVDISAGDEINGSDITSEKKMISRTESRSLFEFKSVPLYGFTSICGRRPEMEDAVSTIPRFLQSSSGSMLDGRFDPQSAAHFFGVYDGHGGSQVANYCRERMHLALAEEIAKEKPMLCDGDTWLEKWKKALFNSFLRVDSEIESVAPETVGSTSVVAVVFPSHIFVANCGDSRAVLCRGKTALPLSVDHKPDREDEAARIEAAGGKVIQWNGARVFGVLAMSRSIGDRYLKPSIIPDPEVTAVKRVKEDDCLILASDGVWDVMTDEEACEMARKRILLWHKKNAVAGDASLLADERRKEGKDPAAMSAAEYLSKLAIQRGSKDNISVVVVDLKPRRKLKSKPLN
As to the kind of experiment: In vitro ABI1 phosphatase inhibition assay via co-regulator RCAR11/PYR1 (MUP dephosphorylation, fluorescence). Format: biochemical. The settings on record: Konzentration 5mM of the substance in DMSO and water; 20 min at 35 °C; MUP substrate, emission 460 nm. An excerpt: Effekte des Phytohormons Abscisinsäure (ABA) auf das Verhalten von Pflanzen unter abiotischem Stress und der Wirkmechanismus von ABA sind in der Literatur beschrieben (vgl. Abrams et al, WO97/23441, Park et al. Science, 2009, 324, 1068; Grill et al. Science, 2009, 324, 1064; Tanokura et al. Biophysics, 2011, 7, 123; Schroeder et al. Plant J. 2010, 61, 290). Daher kann man mit Hilfe eines geeigneten in vitro-Testsystems eine Korrelation zwischen der Wirkung von ABA und der Stressantwort einer Pflanze unter abiotischem Stress ableiten. Unter Wassermangel (Trockenstress) bilden Pflanzen das Phytohormon Abscisinsäure (ABA). Dieses bindet mit einem Co-Regulator (Regulatory Component of ABA-Receptor = RCAR nach Grill et al. Science, 2009, 324, 1064 oder PYR/PYL nach Cutler et al. Science, 2009, 324, 1068) an eine Phosphatase (z.B. ABI1, eine Typ 2C Proteinphosphatase, auch als PP2C abgekürzt) und hemmt diese in ihrer Aktivität. In der Folge wird eine "downstream" Kinase (z.B. SnRK2) nicht mehr dephosphoryliert. Diese somit aktive Kinase schaltet über Phosphorylierung von Transkriptionsfaktoren (z.B. AREB/ABF, vgl. Yoshida et al Plant J. 2010, 61, 672) ein genetisches Schutzprogramm zur Erhöhung der Trockenstresstoleranz an.
In dem im Folgenden beschriebenen Assay wird die Hemmung der Phosphatase ABI1 über den Co-Regulator RCAR11/PYR1 aus Arabidopsis thaliana genutzt. […]

In the case of `CCn1c(SCc2ccc(C#N)cc2)nnc1-c1ccc(Cl)cc1` [B6-63, 3-(4-Chlorphenyl)-4-ethyl-5-[(4-cyanobenzyl)-sulfanyl]-4H-1,2,4-triazol], the “Effekt (BRSNS)” value in the experiment with Brassica napus is listed as “+++”. Besides, the “Effekt (ZEAMX)” value in the experiment on Zea mays (Dosierung 250 g/ha) is given as “+++”.

Take `O=C(CSc1nnc(-c2ccc(Cl)cc2)n1C1CC1)Nc1ccccc1Cl` [D6-726]: in the experiment with Triticum aestivum (Dosierung 250 g/ha), the “Effekt (TRZAS)” value was “++”. Moreover, in the experiment with Zea mays (Dosierung 250 g/ha), the “Effekt (ZEAMX)” value was “+++”. For `CC(C=CC1(O)C(C)=CC(=O)CC1(C)C)=CC(=O)O` (stereo not shown) [Abscisinsäure], the “ABI1 Inhibition” value in experiment [1] is “++++ (Inhibition ≥ 90 %)”.

For the compound `Fc1ccc(CSc2nnc(-c3ccc(Cl)cc3)n2C2CC2)cc1` [D6-13, 3-(4-Chlorphenyl)-4-cyclopropyl-5-[(4-fluorbenzyl)-sulfanyl]-4H-1,2,4-triazol], in the experiment on Triticum aestivum (Dosierung 25 g/ha), the “Effekt (TRZAS)” value is listed as “++”. In addition, the “Effekt (ZEAMX)” value in the experiment with Zea mays (Dosierung 25 g/ha) is given as “+++”.
